The subject of assay [1] is synthesis of LTB4 in human whole blood. In words: human whole blood LTB4 production inhibition assay. The class given is cell-based. Particulars: Homo sapiens. The method, boiled down:
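Steps: compound plus heparinized human whole blood, 15 min at 37° C; add calcimycin to 20 μM final; incubate another 30 min at 37° C; centrifuge at low speed and collect plasma; measure LTB4 with a homogeneous time-resolved fluorescence immunoassay.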

Assay [2] has as its target T1, recombinant human FLAP protein (Homo sapiens, UniProt P20292).
T1 construct: made in house; host or cells: Sf9 insect cells (100,000 x g membrane fraction)
T1 sequence (P20292 1-161): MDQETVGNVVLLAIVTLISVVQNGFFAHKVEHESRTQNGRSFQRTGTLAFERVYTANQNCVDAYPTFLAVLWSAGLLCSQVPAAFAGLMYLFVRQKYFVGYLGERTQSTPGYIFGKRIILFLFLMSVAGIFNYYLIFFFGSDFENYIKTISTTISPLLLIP
In words: FLAP binding assay (Scintillation Proximity Assay, displacement of [125I]L-691,831). Particulars: recombinant human FLAP membranes, [125I]L-691,831 probe; read-out: FLAP SPA IC50. The procedure, abridged: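 Membranes came from Sf9 insect cells expressing recombinant human FLAP, collected as the 100,000×g pellet in Tris pH 7.5/MgCl2/EDTA buffer. 5 μg membrane protein was coupled to WGA SPA beads for 1 h.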

Setting [3] is: heparinized human whole blood, calcimycin 20 μM, read-out: hWB LTB4 IC50.

Read-outs that look alike come from different tables or passages of the source.

`CN1CCC(N(C)c2nc(C3(c4ccc(-c5cnc(N)nc5)cc4)CCC3)no2)CC1` [Example 293, 5-[4-(1-{5-[Methyl-(1-methyl-piperidin-4-yl)-amino]-[1,2,4]oxadiazol-3-yl}-cyclobutyl)-phenyl]-pyrimidin-2-ylamine]: the figures for the IC50 in assay [1] (read-out: hWB LTB4 IC50 (nM)) and in assay [2] were 750 nM and 150 nM, respectively.
Turning to `CNc1ncc(-c2ccc(C3(c4noc(-c5cnn(C)c5)n4)CCC3)cc2)cn1` [Example 294, Methyl-[5-(4-{1-[5-(1-methyl-1H-pyrazol-4-yl)-[1,2,4]oxadiazol-3-yl]-cyclobutyl}-phenyl)-pyrimidin-2-yl]-amine], the IC50 – broadly, the concentration at which inhibition is half-maximal – in assay [1] (setting [3]) came to 35 nM; in assay [2] it was 4.4 nM.
The matching figures for `Cc1cc(-c2cnc(N)nc2)ccc1C1(c2noc(-c3cnn(C)c3)n2)CCC1` [Example 295]: 100 nM and 12 nM.
As to `Nc1ccc(-c2ccc(C3(c4noc(-c5cnc(N6CCNCC6)cn5)n4)CCC3)cc2)cn1` [Example 296, 5-(4-{1-[5-(3,4,5,6-Tetrahydro-2H-[1,2′]bipyrazinyl-5′-yl)-[1,2,4]oxadiazol-3-yl]-cyclobutyl}-phenyl)-pyridin-2-ylamine], the IC50 in assay [1] (setting [3]) was found to be 230 nM; in assay [2] it was 2.1 nM.
The matching figures for `CC(C)(O)Cn1cncc1-c1nc(C2(c3ccc(-c4cnc(N)nc4)cc3)CCC2)no1` [Example 298, 1-[5-(3-{1-[4-(2-Amino-pyrimidin-5-yl)-phenyl]-cyclobutyl}-[1,2,4]oxadiazol-5-yl)-imidazol-1-yl]-2-methyl-propan-2-ol]: 510 nM and 16 nM.
The matching figures for `Nc1cnc(-c2ccc(C3(c4noc(-c5cnn(C6COC6)c5)n4)CCC3)cc2)cn1` [Example 299, 5-(4-{1-[5-(1-Oxetan-3-yl-1H-pyrazol-4-yl)-[1,2,4]oxadiazol-3-yl]-cyclobutyl}-phenyl)-pyrazin-2-ylamine; compound with trifluoro-acetic acid]: 24 nM and 2.9 nM.
The corresponding values for `CN(C)C(=O)Cn1cc(-c2nc(C3(c4ccc(-c5ccc(N)nc5)cc4)CCC3)no2)cn1` [Example 301, 2-[4-(3-{1-[4-(6-Amino-pyridin-3-yl)-phenyl]-cyclobutyl}-[1,2,4]oxadiazol-5-yl)-pyrazol-1-yl]-N,N-dimethyl-acetamide] are 140 nM and 6 nM.
Turning to `Nc1cnc(-c2ccc(C3(c4noc(-c5cnc(N6CCNCC6)cn5)n4)CCC3)cc2)cn1` [Example 302, 5-(4-{1-[5-(3,4,5,6-Tetrahydro-2H-[1,2′]bipyrazinyl-5′-yl)-[1,2,4]oxadiazol-3-yl]-cyclobutyl}-phenyl)-pyrazin-2-ylamine], the IC50 came to 150 nM in assay [1] (setting [3]) and 2.6 nM in assay [2].
The corresponding values for `CN(C)C(=O)Cn1cc(-c2nc(C3(c4ccc(-c5cnc(N)cn5)cc4)CCC3)no2)cn1` [Example 304, 2-[4-(3-{1-[4-(5-Amino-pyrazin-2-yl)-phenyl]-cyclobutyl}-[1,2,4]oxadiazol-5-yl)-pyrazol-1-yl]-N,N-dimethyl-acetamide] are 65 nM and 10 nM.
The matching figures for `Cn1cnc(-c2nc(C3(c4ccc(-c5ccc(N)nc5)cc4)CCC3)no2)c1` [Example 305, 5-(4-{1-[5-(1-Methyl-1H-imidazol-4-yl)-[1,2,4]oxadiazol-3-yl]-cyclobutyl}-phenyl)-pyridin-2-ylamine]: 120 nM and 15 nM.
The matching figures for `C[C@@H]1CCC[C@H](C)N1c1nc(C2(c3ccc(-c4cnc(N)nc4)cc3)CCC2)no1` [Example 306, 5-(4-{1-[5-(cis-2,6-Dimethyl-piperidin-1-yl)-[1,2,4]oxadiazol-3-yl]-cyclobutyl}-phenyl)-pyrimidin-2-ylamine]: 580 nM and 12 nM.
